# Data taken from patent US8304442B2, “Compounds having immunomodulator activity” (Ganial Immunotherapeutics, Inc., priority 2005, dated 2012).
# How the values were obtained:
# [1] = test system: oxazolone-induced hypersensitivity; test: Oxazolone-induced dermatitis; format: in vivo, mice
# Description: While the first application of oxazolone sensitizes the mice, the second elicits the hypersensitivity reaction. The dermatitis manifestations appear 18 hours after the second epicutaneous exposure to oxazolone, both ear thickness and weight markedly and progressively increase. The in vivo studies to assess the pharmacological activity of GIT27, were planned with two set of experimental. In the first set, the mice were treated during or before the sensitization phase. […] To evaluate the effects of GIT27 on the elicitation phase of oxazolone-induced dermatitis, the treatment with GIT27 was given one hour after the second epicutancous exposure to oxazolone, when start the progression of the immunoinflammatory responses.
# type II CIA = test: Type II collagen-induced arthritis (CIA); format: in vivo, mice; details: therapeutic
# Description: To evaluate the therapeutic effect of GIT27 in arthritis, mice developing type II CIA were treated for 10 consecutive days. […] Control mice were treated under the same experimental regime with the vehicle of GIT27.
# The vehicle-treated control mice rapidly develop full clinical signs of type II CIA with a progressive increment of the arthritic clinical scores and severe hind paws oedema. This clinical picture was reflected by severe inflammatory arthritis as indicated by the high the progressive increment of the arthritic histological scores determinated by histological evaluation.
# MLD-STZ induced diabetes = test: Diabetes induced by multiple low doses of streptozotocin; format: in vivo, CBA/H mice; details: prophylactic
# Source text: Both i.p and p.o. treatment with GIT27 suppressed clinical development of diabetes that is induced in CBA/H mice by multiple low doses of streptozotocin. CBA/H mice developed sustained hyperglycaemia over a 2-week period following MLD-STZ injections. As expected, CBA/H control mice treated with the vehicle of GIT27 either i.p. or p.o. develop diabetes with sustained hyperglycaemia developed over a 2-week period following MLD-STZ injections.
# [2] = test system: splenic mononuclear cells (SMNC); test: Ex vivo proliferation and cytokine synthesis of SMNC isolated from GIT27 treated mice; format: in vivo; details: mice treated 7 days i.p. 0.5 mg/mouse or p.o. 2.5 mg/mouse
# Description: (§1) These experiments were carried out to explore if intraperitoneal (i.p.) or per os (p.o.) treatment of mice with GIT27 could influence the proliferative response of SMNC and the production of IL-1β, IL-10, TNF-α, IFN-γ and MIF from isolated PM and SMNC. PM and SMNC isolated from mice treated in vivo with GIT27 for 7 consecutive days i.p. (0.5 mg/mouse), or p.o. (2.5 mg/mouse), or isolated from control animals that received GIT27 vehicle (Na2HPO4/H2O), or were without any treatment. 24 h after the last GIT27 treatment, PM and SMNC were collected for further in vitro stimulation and analysis.
# NF-kB = test: LPS-induced NF-kB DNA binding in monocyte-derived human macrophages; format: cell-based
# [3] = test system: Peritoneal macrophages (PM); test: In vitro cytokine synthesis by LPS-stimulated peritoneal macrophages; format: cell-based, mice
# Description: (§2) Peritoneal macrophages (PM) and splenic mononuclear cells (SMNC) were isolated from normal mice, were cultured in nutrient medium and stimulated with LPS and/or ConA, respectively in the absence or presence of GIT27. […] GIT27 had no effect on MIF expression in either cell type, on proliferation of SMNC, and on IL-10 and Interferon (IFN) gamma production by SMNC.
# DNB-induced colitis = test: DNB-induced colitis; format: in vivo, mice
# Description: Within 5 days after challenge with dinitrobenzene sulfonic acid (DNB), mice develop colitis. The disease severity is evaluated based on a macroscopic score. The vehicle-treated control mice and untreated mice developed colitis with a predictable and progressive increase in inflammation and body weight loss. […] The colons of the control mice and of the GIT27 treated mice were removed, sectioned, fixed, and stained with hematoxylin and eosin. […] The tissue myeloperoxidase activity is a well established marker to assess the inflammatory cell (mainly neutrophils) infiltration. […] We counted an average of 8,9±1.2 (means±SD) cells/high power field in the of DNB-induced animals, whereas there were only 3.37±0.8 cells/high-power field in DNB-induced animals pretreated with GIT27 (p<0.0001).
# [4] = test system: splenic mononuclear cells (SMNC); test: In vitro proliferation and cytokine synthesis by ConA-stimulated splenic mononuclear cells; format: cell-based, mice
# Description: as §2
# [5] = test system: Peritoneal macrophages (PM); test: Ex vivo cytokine synthesis of PM isolated from GIT27 treated mice; format: in vivo; details: mice treated 7 days i.p. 0.5 mg/mouse or p.o. 2.5 mg/mouse
# Description: as §1
# CAR-induced pleurisy = test: Carrageenan (CAR) induced pleurisy; format: in vivo, mice; details: prophylactic treatment
# Source text: GIT27 powerfully suppresses CAR-induced pleurisy in mice All the mice that were challenged with CAR and left untreated or treated with the vehicle of GIT27 developed an acute pleurisy, with production of turbid exudate, PMNs infiltration, and myeloperoxidase (MPO) activity accumulation in the lung.
# LPS-induced lethality = LPS-induced lethality in vivo; design: species or system mice; details: for protection from LPS-induced lethality: therapeutic
# Description: As expected, most of the control mice either untreated or that received the vehicle of GIT27 succumbed to LPS-challenge within 3 days. […] In contrast, the treatment with GIT27 given either po or ip protect the mice from the lethal effects of LPS in a dose-dependent fashion. When given p.o., GIT27 was effective at the dose of 2.5 mg/mouse and dosed out both at 1.5 and 3 mg/mouse.
# IL-10 = details: J. Exp Med.; cited from earlier work
# [6] = treated during or before the sensitization phase
# [7] = 10 consecutive days from clinical score ≧1, vs vehicle
compound,measurement,setting,value
"O=C(O)CC1CC(c2ccccc2)=NO1 (centres unmarked) [GIT27, 3-phenyl-4,5-dihydro-5-isoxazoleacetic acid]",ear thickness,[1]; elicitation phase: treated one hour after second exposure to oxazolone,significant decrease
same,increment of ear thickness,[1]; [6],significantly suppressed
same,increment of ear weight,[1]; [6],significantly suppressed
same,clinical arthritic scores,type II CIA; [7],lower
same,histological arthritic scores,type II CIA; [7],lower
same,progression of the arthritic disease,"type II CIA; 10 consecutive days, potency comparable to dexamethasone",significantly slower progression
same,diabetogenic effect of MLD-STZ (hyperglycaemia),MLD-STZ induced diabetes; i.p.,significantly reduced
same,development of hyperglycaemia,MLD-STZ induced diabetes; p.o.,significantly reducing
same,IFN-γ production by SMNC upon stimulation,[2],normal capacity to produce
same,IL-1β production by SMNC upon stimulation,[2],normal capacity to produce
same,IL-10 production by SMNC upon stimulation,[2],normal capacity to produce
same,MIF expression by SMNC,[2],normal expression pattern
same,TNF-α production by SMNC upon stimulation,[2],normal capacity to produce
same,proliferation of SMNC,[2],normal capacity to proliferate
same,DNA binding of NF-kB induced by LPS,NF-kB,powerfully inhibits in a dose-dependent fashion
same,MIF expression in PM,[3],no effect
same,production of IL-1β by PM,[3]; LPS stimulated,inhibited
same,production of IL-10 by PM,[3]; LPS stimulated,inhibited
same,production of TNF α by PM,[3]; LPS stimulated,markedly inhibited
same,inflammatory cell infiltration (colon myeloperoxidase activity),"DNB-induced colitis; 5 days after induction of colitis, p<0.0001",significant reduction
same,infiltrating neutrophils in histology samples,"DNB-induced colitis; means±SD, DNB-induced animals pretreated, p<0.0001",3.37±0.8 cells/high-power field
same,tissue damage (colon histology),"DNB-induced colitis; treated before DNB-induced colitis, vs control mice",significantly reduced
same,weight loss,DNB-induced colitis; vs control groups,significant reduction
same,increase in colon weight,DNB-induced colitis; vs controls,significantly lower
same,progression of inflammatory colitis (macroscopic score),"DNB-induced colitis; vs controls, p<0.001",significantly attenuated
same,MIF expression in SMNC,[4],no effect
same,IL-10 production by SMNC,[4]; ConA stimulated,no effect
same,Interferon (IFN) gamma production by SMNC,[4]; ConA stimulated,no effect
same,production of TNF α by SMNC,[4]; ConA stimulated,markedly inhibited
same,proliferation of SMNC,[4]; ConA stimulated,no effect
same,MIF expression by PM upon mitogenic stimulation,[5],normal pattern
same,synthesis of IL-1β by PM,[5],impaired synthesis
same,synthesis of IL-10 by PM,[5],impaired synthesis
same,synthesis of TNF α by PM,[5],impaired synthesis
same,PMNs infiltration,CAR-induced pleurisy,reduced
same,myeloperoxidase (MPO) activity accumulation in the lung,CAR-induced pleurisy,reduced
same,production of exudate,CAR-induced pleurisy,reduced
same,overall effect on CAR-induced pleurisy,CAR-induced pleurisy; comparable to antibody against mouse TNF-alpha,powerful protective effect
same,protection from LPS-induced lethality,"LPS-induced lethality; i.p., between 0.25 and 0.5 mg/mouse",dose-dependent protection
same,LPS-induced lethality,"LPS-induced lethality; p.o. and i.p., prophylactic regime (-24 and -1 hour prior to LPS)",significantly reducing
same,protection from LPS-induced lethality,"LPS-induced lethality; p.o., 2.5 mg/mouse",effective
same,protection from LPS-induced lethality,"LPS-induced lethality; p.o., 1.5 and 3 mg/mouse",dosed out
same,LPS-induced lethality,"LPS-induced lethality; therapeutic administration, overall",powerfully counteracts
Cyclosporin A,IL-10 synthesis in vitro,IL-10,down-regulates
